From US20220226508A1, “METHODS AND COMPOSITIONS FOR TREATING EPILEPSY” (THE REGENTS OF THE UNIVERSITY OF CALIFORNIA, priority 2019, published 2022)
Entries after “also recorded” stand apart in the source; their conditions may differ. Like-named read-outs stand apart in the source and are kept apart here.

Key:
scn1lab mutant zebrafish = experiment: Locomotion assay of high-velocity seizure-like swim behavior; assay type: in vivo, zebrafish (Danio rerio); conditions: for effect on seizure-like swim behavior (change in mean velocity): commercial 5-HT2BR/dopamine agonists, three concentrations; for effect on seizure-like swim behavior (change in mean velocity) / suppression of seizure-like swim behavior (change in mean velocity): 30 and 90 min exposure, threshold ≥40%; for suppression of seizure-like swim behavior (change in mean velocity): independently resynthesized compounds retested at 10, 50, 100 and 250 μM; for suppression of seizure-like swim behavior (change in mean swim velocity): initial library screen at 100 μM and 250 μM, 5 dpf larvae, threshold reduction ≥40%
Source text: Zebrafish maintenance. Zebrafish were raised under standard laboratory conditions in accordance with requirements outlined in the Guide for the Care and Use of Animals (ebrary Inc., 2011) and experiments were approved by the Institutional Animal Care and Use Committee (protocol #AN108659-03). Embryos were obtained by natural spawning of scn1lab (didy^s552) heterozygous animals that had been outcrossed to TL strain. Homozygous scn1lab mutants (n=2500) have dispersed melanosomes and appear visibly darker by 3 dpf compared to WT larvae.
Seizure monitoring. At 5 dpf individual zebrafish larvae were placed into a single well of a clear flat-bottomed 96-well microplate containing embryo media. Larvae were selected randomly as sex determination is not possible at this stage of development. All drug screening experiments were conducted in an unbiased manner by investigators blinded to the test compounds and all files coded for post hoc analysis. Microplates were placed inside the DanioVision and acclimated for 20 min at room temperature. Locomotion plots were obtained for each well at a recording epoch of 10 min using EthoVision XT software (DanioVision, Noldus Information Technology). Seizure scoring was performed using the following three-stage scale established for pentylenetetrazole-induced seizures: Stage 0, no or very little swim activity; Stage I, increased, brief bouts of swim activity; Stage II, rapid “whirlpool-like” circling swim behavior; and Stage III, paroxysmal whole-body clonus-like convulsions, and a brief loss of posture. WT fish are typically scored at Stage 0 or I. Plots were analyzed for distance travelled (in millimeters) and mean velocity (in millimeters per second). After 90 mins of drug exposure larvae were examined for toxic side-effects. Compounds that decreased or stopped the larva heartbeat, or reduced or eliminated the escape response when touched, were considered toxic.
Statistics. Data are presented as the mean±standard error of the mean (SEM), unless otherwise stated. For behavior analysis, the threshold for a change in mean swim velocity ≥40% (>1.5×SD of 250 control treated scn1lab) is considered significant. For comparison between more than two groups one-way ANOVA analysis was used. […] Differences considered statistically significant are indicated with asterisks (*P<0.05; **P<0.01).

human 5-HT2CR [1] = biological target: T1, human 5-HT2CR (Homo sapiens, UniProt P28335); conditions: known drugs and commercial compounds; read-out: binding affinity (Ki) 5-HT2C / 5-HT2CR; cited from earlier work
T1 construct: expressed in transfected cells
T1 sequence (P28335 33-458): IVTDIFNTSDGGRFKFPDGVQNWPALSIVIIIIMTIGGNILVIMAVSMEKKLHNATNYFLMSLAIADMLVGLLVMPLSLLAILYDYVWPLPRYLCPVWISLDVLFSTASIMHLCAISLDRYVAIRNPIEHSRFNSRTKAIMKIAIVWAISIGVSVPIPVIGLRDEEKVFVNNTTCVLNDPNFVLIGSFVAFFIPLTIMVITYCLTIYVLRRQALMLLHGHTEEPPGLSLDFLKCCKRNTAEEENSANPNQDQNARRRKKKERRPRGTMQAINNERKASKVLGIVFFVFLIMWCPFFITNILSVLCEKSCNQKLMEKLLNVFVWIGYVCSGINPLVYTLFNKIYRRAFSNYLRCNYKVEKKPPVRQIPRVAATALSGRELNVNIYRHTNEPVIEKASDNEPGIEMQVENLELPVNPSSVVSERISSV

human 5-HT2BR [2] = biological target: T2, human 5-HT2BR (Homo sapiens, UniProt P41595); conditions: known drugs and commercial compounds; read-out: binding affinity (Ki) 5-HT2B / 5-HT2BR; cited from earlier work
T2 construct: expressed in transfected cells

human 5-HT2AR [3] = biological target: T3, human 5-HT2AR (Homo sapiens, UniProt P28223); conditions: read-out: binding affinity (Ki) 5-HT2A / 5-HT2AR, cited from earlier work
T3 construct: expressed in transfected cells

human 5-HT2CR [4] = biological target: T1, human 5-HT2CR; experiment: Radioligand binding assay (NIMH PDSP), 5-HT2CR; conditions: read-out: binding affinity (Ki) 5-HT2CR
Description: (§1) Receptor Binding Assays. In vitro binding assay and Ki data were performed by the US National Institute of Mental Health Psychoactive Drug Screening Program (NIMH PDSP). Drugs were screened against recombinant, stably expressed human 5-HT2AR, 5-HT2BR, 5-HT2CR and H1. For specific binding assays please refer to detailed procedures at https://pdspdb.unc.edu/pdspWeb/ (Besnard, J. et al., Nature, 492, 215-220, 2012).

human 5-HT2AR [5] = biological target: T3, human 5-HT2AR; experiment: biochemical; assay type: binding; conditions: read-out: binding affinity (Ki) 5-HT2AR
Description: as §1

human 5-HT2BR [6] = biological target: T2, human 5-HT2BR; experiment: biochemical; assay type: binding; conditions: for Ki: read-out: binding affinity (Ki) 5-HT2BR; for specificity / selectivity for 5-HT2BR over other 5-HT2R subtypes: radioligand binding
Description: as §1

human H1 receptor = human H1 receptor (Homo sapiens, UniProt P35367); experiment: Radioligand binding assay (NIMH PDSP), H1; parameters: expressed in transfected cells; conditions: read-out: binding affinity (Ki) H1
Description: as §1

[7] = known drugs and commercial compounds
[8] = clemizole analogs, recombinant human receptor

T3 sequence (P28223 whole entry): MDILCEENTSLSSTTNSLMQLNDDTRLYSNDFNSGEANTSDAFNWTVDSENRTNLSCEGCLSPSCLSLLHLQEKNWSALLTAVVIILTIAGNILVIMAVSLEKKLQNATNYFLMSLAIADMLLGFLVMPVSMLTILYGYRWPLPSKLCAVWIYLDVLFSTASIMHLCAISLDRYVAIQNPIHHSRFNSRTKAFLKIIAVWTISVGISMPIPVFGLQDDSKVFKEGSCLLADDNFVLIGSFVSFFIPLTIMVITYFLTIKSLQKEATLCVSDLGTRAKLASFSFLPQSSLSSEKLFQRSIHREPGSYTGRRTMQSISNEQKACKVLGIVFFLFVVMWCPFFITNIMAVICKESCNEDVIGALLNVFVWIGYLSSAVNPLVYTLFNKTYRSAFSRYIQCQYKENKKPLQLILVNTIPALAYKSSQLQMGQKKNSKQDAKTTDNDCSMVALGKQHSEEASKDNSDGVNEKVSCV
Sequence of human H1 receptor (P35367 whole entry): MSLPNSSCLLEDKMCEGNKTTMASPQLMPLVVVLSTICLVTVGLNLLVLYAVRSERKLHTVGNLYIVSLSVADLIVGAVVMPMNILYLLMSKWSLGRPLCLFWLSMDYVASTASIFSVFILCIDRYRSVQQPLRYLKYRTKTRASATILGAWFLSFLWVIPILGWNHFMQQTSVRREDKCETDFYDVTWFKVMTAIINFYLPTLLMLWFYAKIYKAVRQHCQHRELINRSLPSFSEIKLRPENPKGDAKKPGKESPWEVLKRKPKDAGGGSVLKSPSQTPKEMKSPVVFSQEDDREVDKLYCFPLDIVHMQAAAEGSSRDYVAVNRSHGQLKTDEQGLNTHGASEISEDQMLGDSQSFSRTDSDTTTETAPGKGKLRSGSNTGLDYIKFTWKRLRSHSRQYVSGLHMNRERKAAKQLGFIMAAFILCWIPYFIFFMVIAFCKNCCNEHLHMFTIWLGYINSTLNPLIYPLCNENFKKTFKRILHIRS
T2 sequence (P41595 whole entry): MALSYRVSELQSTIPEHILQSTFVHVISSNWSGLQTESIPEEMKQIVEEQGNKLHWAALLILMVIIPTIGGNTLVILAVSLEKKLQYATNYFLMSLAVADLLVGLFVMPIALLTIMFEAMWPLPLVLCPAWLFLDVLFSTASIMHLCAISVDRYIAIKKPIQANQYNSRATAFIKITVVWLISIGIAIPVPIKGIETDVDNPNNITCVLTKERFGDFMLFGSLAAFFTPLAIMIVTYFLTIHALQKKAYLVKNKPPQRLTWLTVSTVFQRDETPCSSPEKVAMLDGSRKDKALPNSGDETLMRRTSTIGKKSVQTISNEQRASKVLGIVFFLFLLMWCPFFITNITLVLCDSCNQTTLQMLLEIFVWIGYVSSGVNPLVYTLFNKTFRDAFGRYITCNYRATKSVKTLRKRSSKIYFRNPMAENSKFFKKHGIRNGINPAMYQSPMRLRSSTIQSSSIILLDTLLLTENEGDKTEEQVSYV

Structure (SMILES)	effect on seizure-like swim behavior (change in mean velocity) (scn1lab mutant zebrafish)	Ki (human 5-HT2AR [5]) [nM]	Ki (human H1 receptor) [nM]	Ki (human 5-HT2CR [4]) [nM]	Ki (human 5-HT2BR [6]) [nM]	other results
CC(N)Cc1c[nH]c2ccc(OCc3cccs3)cc12 (stereo not drawn) [BW-723C86, reference compound]	showed a decrease in seizure-like swim behavior, but also failed to reach our significance threshold	–	–	–	–	–
Clc1cccc(COc2cncc(N3CCNCC3)n2)c1 [CP-809,101]	biphasic response	–	–	–	–	Ki (human 5-HT2CR [1]): 64 nM; Ki (human 5-HT2BR [2]): 6 nM; Ki (human 5-HT2AR [3]; [7]): 1.6 nM
Clc1ccc(Cn2c(CC3CCCC3)nc3ccccc32)cc1 [Compound 1, 1-[(4-Chlorophenyl)methyl]-2-(cyclopentylmethyl)-1H-benzimidazole]	–	> 10000	–	–	–	Ki (human 5-HT2CR [4]; [8]): 2730 nM; Ki (human 5-HT2BR [6]; [8]): 501 nM
c1ccc(Cn2c(CN3CCCC3)nc3ccccc32)cc1 [Compound 3]	–	327	4.8	292	83	–
CCCn1c(CN2CCCC2)nc2ccccc21 [Compound 5]	–	> 10000	362	> 10000	219	suppression of seizure-like swim behavior (change in mean velocity) (scn1lab mutant zebrafish): no significant effect on the high-speed seizure-like behavior; also recorded: no significant effect on the swim behavior; suppression of seizure-like swim behavior (change in mean swim velocity) (scn1lab mutant zebrafish): no significant effect on swim behavior; specificity / selectivity for 5-HT2BR over other 5-HT2R subtypes (human 5-HT2BR [6]): specific binding for 5HT2BR; also recorded: selectivity for 5-HT2BR
Fc1ccc(Cn2c(CN3CCCC3)nc3ccccc32)cc1 [Compound 7]	–	15	1	345	46	–
Clc1ccc(Cn2c(CN3CCCC3)cc3ccccc32)cc1 [Compound 11, 1-[(4-Chlorophenyl)methyl]-2-[(pyrrolidin-1-yl)methyl]-1H-indole]	–	–	–	–	–	Ki (human H1 receptor; [8]): 6.4 nM; Ki (human 5-HT2CR [4]; [8]): 248 nM; Ki (human 5-HT2AR [5]; [8]): 631 nM; Ki (human 5-HT2BR [6]; [8]): 134 nM
Nc1ccc(Cn2c(CN3CCCC3)nc3ccccc32)cc1 [Compound 14]	–	> 10000	27	> 10000	606	suppression of seizure-like swim behavior (change in mean velocity) (scn1lab mutant zebrafish): no significant effect on the high-speed seizure-like behavior; also recorded: no significant effect on the swim behavior; suppression of seizure-like swim behavior (change in mean swim velocity) (scn1lab mutant zebrafish): no significant effect on swim behavior; specificity / selectivity for 5-HT2BR over other 5-HT2R subtypes (human 5-HT2BR [6]): specific binding for 5HT2BR; also recorded: selectivity for 5-HT2BR
Clc1ccc(Cn2c(CN3CCCCC3)nc3ccccc32)cc1 [Compound 22]	–	623	8.5	4580	306	–
CCN(CC)Cc1nc2ccccc2n1Cc1ccc(Cl)cc1 [Compound 24, ({1-[(4-Chlorophenyl)methyl]-1H-1,3-benzodiazol-2-yl}methyl)diethylamine]	–	–	–	–	–	Ki (human H1 receptor; [8]): 3.7 nM; Ki (human 5-HT2CR [4]; [8]): 1410 nM; Ki (human 5-HT2AR [5]; [8]): 1260 nM; Ki (human 5-HT2BR [6]; [8]): 115 nM
CN1CCN(Cc2nc3ccccc3n2Cc2ccc(Cl)cc2)CC1 [Compound 26]	–	316	1.2	313	20	–
Clc1ccc(Cn2c(CN3CCSC3)nc3ccccc32)cc1 [Compound 28]	–	> 10000	44	1080	464	–
C[C@H](N)Cn1ccc2cc(F)c(Cl)cc21 [Ro 60-0175]	consistently decreased mean velocity and was borderline effective after 90 mins of drug exposure	–	–	–	–	Ki (human 5-HT2CR [1]): 9.1 nM; Ki (human 5-HT2BR [2]): 4.3 nM; Ki (human 5-HT2AR [3]): 37.2 nM
CN(C)C1CCc2cc(O)c(O)cc2C1 (stereo not drawn) [TL-99]	failed to elicit any behavioral effect	–	–	–	–	Ki (human 5-HT2CR [1]): 2290 nM; Ki (human 5-HT2BR [2]): 2040 nM; Ki (human 5-HT2AR [3]; [7]): 2340 nM
CN1CCc2cccc3c2[C@H]1Cc1ccc(O)c(O)c1-3 [apomorphine, reference compound]	significantly increased mean swim velocity	–	–	–	–	–
Cl.Clc1cccc(N2CCNCC2)c1 [mCPP, 1-(3-Chlorophenyl)piperazine hydrochloride, reference compound]	biphasic response	–	–	–	–	–
